Patent publication US7678787B2, “Pyrrolobenzodiazepine pyridine carboxamides and derivatives as follicle-stimulating hormone receptor antagonists” (Wyeth, priority 2005, dated 2010)
Structures can show the parent of a compound that is named as a salt.

target: T1, human FSH receptor (Homo sapiens, UniProt P23945); assay: FSH receptor-dependent CRE-luciferase reporter gene assay (CHO FSH-R 6CRE-Luc cells); format: cell-based; details: dose-response format in presence of EC50 of purified human FSH; * n=3, ** n=2 averages
T1 construct: host or cells: CHO-K1 (CHO FSH-R 6CRE-Luc, 1D7 cells)
T1 sequence (P23945 18-695): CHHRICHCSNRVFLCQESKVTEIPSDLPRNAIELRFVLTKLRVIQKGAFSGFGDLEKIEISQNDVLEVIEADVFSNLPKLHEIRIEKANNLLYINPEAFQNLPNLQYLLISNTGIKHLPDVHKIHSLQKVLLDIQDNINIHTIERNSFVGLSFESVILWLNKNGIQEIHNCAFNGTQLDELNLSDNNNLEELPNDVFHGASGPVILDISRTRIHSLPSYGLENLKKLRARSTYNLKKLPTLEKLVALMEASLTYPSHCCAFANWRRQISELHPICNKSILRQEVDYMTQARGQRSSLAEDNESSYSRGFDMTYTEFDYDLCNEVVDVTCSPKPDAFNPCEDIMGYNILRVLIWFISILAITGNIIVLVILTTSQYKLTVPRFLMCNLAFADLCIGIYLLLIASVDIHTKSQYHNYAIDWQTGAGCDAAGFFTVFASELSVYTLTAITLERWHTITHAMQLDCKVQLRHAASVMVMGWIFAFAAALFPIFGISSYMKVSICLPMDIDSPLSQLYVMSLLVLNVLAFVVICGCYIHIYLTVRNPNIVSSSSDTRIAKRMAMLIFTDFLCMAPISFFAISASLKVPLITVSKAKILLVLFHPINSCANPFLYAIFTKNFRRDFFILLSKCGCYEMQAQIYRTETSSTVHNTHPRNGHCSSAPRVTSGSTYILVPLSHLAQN
From the text: FOLLICLE-STIMULATING HORMONE RECEPTOR-DEPENDENT CRE-LUCIFERASE REPORTER GENE ASSAY FOR THE IDENTIFICATION OF FOLLICLE-STIMULATING HORMONE (FSH) ANTAGONISTS
A Chinese hamster ovarian cell line that stably produces the human FSH receptor and a luciferase reporter gene regulated by cAMP response elements was used to identify and determine the relative potencies of human FSH receptor antagonists. See for example, Kelton, C. A., et al. Mol. Cell. Endocrinol. 89:141-151 (1992), Tilly, J. L., et al. Endocrinology 131:799-806(1992), and George, S. E., et al. J. Biomol. Screening 2:235-240 (1997).
Compound Vehicle: Stock compounds were solubilized in an appropriate vehicle, e.g., phosphate buffered saline (PBS) or dimethyl sulfoxide (DMSO), at 30 mM. The compounds subsequently were diluted in DMSO to working dilutions of 1 and 20 or 30 mM for 2-dose testing format and 1 μM-10 mM for dose-response format. The DMSO dilutions were diluted 500-fold in sterile growth medium [D-MEM/F-12 (GIBCO/BRL; Grand Island, N.Y.) containing 15 mM HEPES, 2 mM l-glutamine, pyridoxine hydrochloride, phenol red and 5% FETALCLONE® II (HyClone Laboratories, Inc; Logan, Utah), 0.2% DMSO, 100 units penicillin G/ml, and 100 μg streptomycin sulfate/ml (GIBCO/BRL)]. The concentration of the vehicle in each of the compound dilutions was the same.
Positive Controls: Purified human FSH (>98%) was purchased from Cortex Biochem, Inc. (San Leandro, Calif.) and 3-[(2S*,5R*)-5-{[2-(1H-Indol-3-yl)-ethylcarbamoyl]-methyl}-4-oxo-2-(5-phenylethynyl-thiophen-2-yl)-thiazolidin-3-yl]-benzamide (an FSH-R thiazolidinone antagonist) was prepared by processes described by R. A. Scheuerman et al. in U.S. Pat. No. 6,426,357 (Affymax).
The CHO FSH-R 6CRE-Luc cells (1D7 cells) were obtained from Affymax (Palo Alto, Calif.). These Chinese hamster ovary cells (CHO-K1) were engineered genetically to stably express the recombinant human FSH receptor gene and a luciferase reporter gene under the regulation of 6 copies of a cAMP response element. The cells were plated one day prior to treatment into 96-well white opaque plates at a density of 50,000 cells/100 μl/well in growth medium. On the day of treatment, the growth medium was removed from the wells by aspiration and 50 μl of fresh growth medium was added to each well. The cells were incubated at 37° C. in a humidified incubator with 5% CO2/95% air.
The treated cells were incubated for 4 hours at 37° C. in a humidified incubator with 5% CO2/95% air. At the end of the incubation period, luciferase activity was measured by chemiluminescence using a commercially available kit (LucScreen, Tropix, Inc., Bedford, Mass.) according to the manufacturer's specifications, except that Buffer 1 and Buffer 2 were mixed together in equal proportion prior to the addition of 100 μl of the combined reagents to each well. Chemiluminescence was detected using a luminometer (EG & G Berthold Microlumat LB 96 P, Wallac, Gaithersburg, Md.) with chemiluminescence measured for 1 sec/well. Background luminescence was measured for each well prior to the addition of the LucScreen reagent.
In the 96-well 2-dose format, each compound was tested in duplicate at each dose. […] One plate was used to test a maximum of 22 compounds.
The EC50 of purified human FSH alone was tested in triplicate with each test compound. The doses chosen to test each compound were extrapolated from the initial 2-dose screening process. Along with the test compounds, purified human FSH also was tested in a dose response (0.03, 0.1, 0.3, 1, 3, 10, and 30 ng/ml) for a positive control and quality control. One plate was used for 3 test compounds and the FSH positive control.
Luciferase activity is expressed as relative light units/sec/well. Luciferase activity in antagonist was compared to the appropriate negative and positive controls. For 2-dose testing, results are reported as luciferase activity and are expressed as percent inhibition of the response obtained from the EC50 of FSH.

Row | Structure (SMILES) | IC50
1 | COc1ccccc1-c1ccc(C(=O)N2Cc3ccc(C(=O)NCC(c4cccnc4)N4CCCC4)n3Cc3ccccc32)cc1 (stereo not shown) [Example 9, 10-[(2′-METHOXY-1,1′-BIPHENYL-4-YL)CARBONYL]-N-(2-PYRIDIN-3-YL-2-PYRROLIDIN-1-YLETHYL)-10,11-DIHYDRO-5H-PYRROLO[2,1-C][1,4]BENZODIAZEPINE-3-CARBOXAMIDE] | 17 µM
2 | Cc1ccc(-c2ccc(C(=O)N3Cc4ccc(C(=O)NCc5cccnc5)n4Cc4ccccc43)cc2C)cc1 [Example 22] | 15 µM
3 | CCN(CC)C(=O)Cc1ccccc1-c1ccc(C(=O)N2Cc3ccc(C(=O)NCc4cccnc4)n3Cc3ccccc32)cc1 [Example 67] | 29.1 µM
4 | O=C(NCc1cccnc1)c1ccc2n1Cc1ccccc1N(C(=O)c1cccc(C(F)(F)F)c1)C2 [Example 92] | 9.9 µM
5 | O=C(NCc1cccnc1)c1ccc2n1Cc1ccccc1N(C(=O)c1ccc(Oc3ccccc3)cc1)C2 [Example 101] | 12 µM
6 | NS(=O)(=O)c1cc(C(=O)N2Cc3ccc(C(=O)NCc4cccnc4)n3Cc3ccccc32)ccc1N1CCOCC1 [Example 114, 10-[3-(AMINOSULFONYL)-4-MORPHOLIN-4-YLBENZOYL]-N-(PYRIDIN-3-YLMETHYL)-10,11-DIHYDRO-5H-PYRROLO[2,1-C][1,4]BENZODIAZEPINE-3-CARBOXAMIDE HEMIHYDRATE] | > 30 µM
7 | O=C(NCc1cccnc1)c1ccc2n1Cc1ccccc1N(C(=O)c1cc(Cl)sc1Cl)C2 [Example 118] | 27.7 µM
8 | COc1ccccc1CNc1ccc(C(=O)N2Cc3ccc(C(=O)NCc4cccnc4)n3Cc3ccccc32)cn1 [Example 120] | 49.6 µM
9 | O=C(NCc1cccnc1)c1ccc2n1Cc1ccccc1N(C(=O)c1ccc(NCCc3ccccc3)nc1)C2 [Example 126] | 18.7 µM
10 | CCCCNc1ccc(C(=O)N2Cc3ccc(C(=O)NCc4cccnc4)n3Cc3ccccc32)cn1 [Example 133] | 14.5 µM

Results, then the compound that gave them:

Row | IC50 | Structure (SMILES)
11 | 16.4 µM | Cc1cccc(C)c1-c1ccc(C(=O)N2Cc3ccc(C(=O)NCc4cccnc4)n3Cc3ccccc32)cc1 [Example 12]
12 | 0.994 µM | NS(=O)(=O)c1ccccc1-c1ccc(C(=O)N2Cc3ccc(C(=O)NCc4cccnc4)n3Cc3ccccc32)cc1 [Example 16]
13 | 2.4 µM | O=C(NCc1cccnc1)c1ccc2n1Cc1ccccc1N(C(=O)c1ccc(-c3ccccc3Cc3nnn[nH]3)cc1)C2 [Example 19]
14 | > 30 µM | CC(=O)c1ccc(-c2ccc(C(=O)N3Cc4ccc(C(=O)NCc5cccnc5)n4Cc4ccccc43)cc2C)cc1 [Example 26]
15 | 22.7 µM | Cc1ccccc1-c1cccc(C(=O)N2Cc3ccc(C(=O)NCc4cccnc4)n3Cc3ccccc32)c1 [Example 27]
16 | 31 µM | O=C(O)Cc1ccccc1-c1ccc(C(=O)N2Cc3ccc(C(=O)NCc4cccnc4)n3Cc3ccccc32)cc1 [Example 35, (4′-{[3-{[(PYRIDIN-3-YLMETHYL)AMINO]CARBONYL}-5H-PYRROLO[2,1-C][1,4]BENZODIAZEPIN-10(11H)-YL]CARBONYL}-1,1′-BIPHENYL-2-YL)ACETIC ACID]
17 | 25.1 µM | O=C(NCc1cccnc1)c1ccc2n1Cc1ccccc1N(C(=O)c1ccc(-c3ccccc3CN3CCCC3)cc1)C2 [Example 41]
18 | 18.8 µM | Cc1ccc(C(=O)N2Cc3ccc(C(=O)NCc4cccnc4)n3Cc3ccccc32)cc1 [Example 77]
19 | 17.8 µM | O=C(NCc1cccnc1)c1ccc2n1Cc1ccccc1N(C(=O)c1ccc(C(F)(F)F)cc1)C2 [Example 79]
20 | 16.6 µM | Cc1cccc(C(=O)N2Cc3ccc(C(=O)NCc4cccnc4)n3Cc3ccccc32)c1 [Example 83]
21 | 31.5 µM | O=C(NCc1cccnc1)c1ccc2n1Cc1ccccc1N(C(=O)c1ccc(F)c(F)c1)C2 [Example 100]
22 | > 30 µM | O=C(NCc1cccnc1)c1ccc2n1Cc1ccccc1N(C(=O)c1ccccn1)C2 [Example 116]
23 | 15.8 µM | O=C(NCc1cccnc1)c1ccc2n1Cc1ccccc1N(C(=O)c1ccc(NCc3cccnc3)nc1)C2 [Example 131]
24 | 11.3 µM | O=C(NCc1cccnc1)c1ccc2n1Cc1ccccc1N(C(=O)c1ccc3ccccc3c1)C2 [Example 146]

tested on: not given; assay: not given; details: not given

Row | Structure (SMILES) | melting point
25 | Cc1ncc(CNC(=O)c2ccc3n2Cc2ccccc2N(C(=O)CSc2ccc(Br)cc2)C3)c(CO)c1O | 199 to 200 °C
26 | CN(C)C(=O)c1ccccc1-c1ccc(C(=O)N2Cc3ccc(C(=O)NCc4cccnc4)n3Cc3ccccc32)cc1 | 206 to 207 °C
27 | O=C(NCc1cccnc1)c1ccc2n1Cc1ccccc1N(C(=O)CSc1ccc(Br)cc1)C2 (as salt: hydrochloride) (hydrate or solvate) [Example 141] | 136 to 137 °C
28 | CSc1ccccc1-c1ccc(C(=O)N2Cc3ccc(C(=O)NCc4cccnc4)n3Cc3ccccc32)cc1 (hydrate or solvate) [Example 14, 10-{[2′-(METHYLTHIO)-1,1′-BIPHENYL-4-YL]CARBONYL}-N-(PYRIDIN-3-YLMETHYL)-10,11-DIHYDRO-5H-PYRROLO[2,1-C][1,4]BENZODIAZEPINE-3-CARBOXAMIDE 0.67 HYDRATE] | 172 to 175 °C
29 | NS(=O)(=O)c1cc(C(=O)N2Cc3ccc(C(=O)NCc4cccnc4)n3Cc3ccccc32)ccc1N1CCOCC1 (hydrate or solvate) [Example 114, 10-[3-(AMINOSULFONYL)-4-MORPHOLIN-4-YLBENZOYL]-N-(PYRIDIN-3-YLMETHYL)-10,11-DIHYDRO-5H-PYRROLO[2,1-C][1,4]BENZODIAZEPINE-3-CARBOXAMIDE HEMIHYDRATE] | 159 to 161 °C
30 | O=C(NCc1cccnc1)c1ccc2n1Cc1ccccc1N(C(=O)c1ccc3c(c1)Cc1ccccc1-3)C2 [Example 147] | 116 to 119 °C

Second part, the compound after the results:

Row | melting point | Structure (SMILES)
31 | 179 °C | COc1cc(C(=O)N2Cc3ccc(C(=O)NCc4c(CO)cnc(C)c4O)n3Cc3ccccc32)ccc1-c1ccccc1C (as salt: hydrochloride) (hydrate or solvate)
32 | 216 to 218 °C (dec.) | Cc1cccc(C)c1-c1ccc(C(=O)N2Cc3ccc(C(=O)NCc4cccnc4)n3Cc3ccccc32)cc1 [Example 12]
33 | 153 to 156 °C | NS(=O)(=O)c1ccccc1-c1ccc(C(=O)N2Cc3ccc(C(=O)NCc4cccnc4)n3Cc3ccccc32)cc1 [Example 16]
34 | 164 to 167 °C | O=C(NCc1cccnc1)c1ccc2n1Cc1ccccc1N(C(=O)c1ccc(-c3ccccc3Cc3nnn[nH]3)cc1)C2 [Example 19]
35 | 210 to 212 °C | O=C(NCc1cccnc1)c1ccc2n1Cc1ccccc1N(C(=O)c1ccc(-c3ccccc3CN3CCCC3)cc1)C2 [Example 41]
36 | 197 °C | O=C(NCc1cccnc1)c1ccc2n1Cc1ccccc1N(C(=O)c1ccccc1)C2 [Example 76]
37 | 169 to 171 °C | O=C(NCc1cccnc1)c1ccc2n1Cc1ccccc1N(C(=O)c1ccc3c(c1)OCO3)C2 [Example 96]
